Source: US6777434B2, “Thiazolidine-4-one derivative, method for preparing the same, and pharmaceutical composition containing the same” (CJ Corp., priority 2002, dated 2004)

Tests used:
COX-2 = biological target: T1, COX-2 (Mus musculus, UniProt Q05769); experiment: Assay for the COX-2 inhibitory activity using RAW 264.7 cell line (PGE2 inhibition); format: cell-based; conditions: for COX-2 inhibitory activity compared with the reference: 10 nM, RAW 264.7, comparison with Valdecoxib; for inhibition (%) ratio of COX-2 to COX-1 compared with the reference Valdecoxib: COX-2 at 10 nM (RAW 264.7) versus COX-1 at 1 μM (U-937); for inhibition at 0.01 µM: RAW264.7, 10 nM test compound, RAW 264.7 cells, interferon and LPS, 18 hours, PGE2 by EIA, read-out: Cyclooxygenase (COX) Inhibition (%) COX-2 (10 nM)
T1 construct: host or cells: RAW 264.7 cells, pre-treated with aspirin, then induced with interferon and LPS
T1 sequence (Q05769 18-604): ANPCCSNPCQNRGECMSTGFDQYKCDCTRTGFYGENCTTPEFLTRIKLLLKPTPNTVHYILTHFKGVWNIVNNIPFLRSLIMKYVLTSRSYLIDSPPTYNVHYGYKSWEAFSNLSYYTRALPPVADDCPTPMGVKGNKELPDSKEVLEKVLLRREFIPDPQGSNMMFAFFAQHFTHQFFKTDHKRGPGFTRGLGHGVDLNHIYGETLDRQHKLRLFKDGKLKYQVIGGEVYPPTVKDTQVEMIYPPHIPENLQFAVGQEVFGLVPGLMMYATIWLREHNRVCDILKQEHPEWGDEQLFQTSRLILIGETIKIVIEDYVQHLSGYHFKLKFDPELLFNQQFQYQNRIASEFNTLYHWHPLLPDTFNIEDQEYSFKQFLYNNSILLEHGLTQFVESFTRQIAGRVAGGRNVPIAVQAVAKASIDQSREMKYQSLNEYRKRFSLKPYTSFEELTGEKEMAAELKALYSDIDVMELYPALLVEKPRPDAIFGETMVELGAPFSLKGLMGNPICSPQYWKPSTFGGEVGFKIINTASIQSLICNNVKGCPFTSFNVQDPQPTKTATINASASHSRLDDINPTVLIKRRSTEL
Method: Each well was treated with 250 μM of aspirin and incubated at 37° C. for 2 hours. After the culture media were replaced with new culture media, the new culture media were treated with a test compound (10 nM) and incubated for 30 minutes. Then, each well was treated with interferon ? (100 units/ml) and lipopolysaccharide (LPS, 100 ng/ml) and incubated for 18 hours. The culture media were transferred to another test tubes. The concentration of PGE2 was quantified by means of the EIA kit (Cayman Chemicals):
(§1) The percentages of the COX inhibition were calculated according to the following equation:
(§2) % Inhibition=(concentration of PGE2 in test compound-untreated sample−concentration of PGE2 in test compound-treated sample)/(concentration of PGE2 in test compound-untreated sample)×100

COX-1 = biological target: T2, COX-1 (Homo sapiens, UniProt P23219); experiment: Assay for the COX-1 inhibitory activity using U-937 (PGE2 inhibition); format: cell-based; conditions: 1 μM test compound; U-937 human lymphoma cells; PGE2 after arachidonic acid; read-out: Cyclooxygenase (COX) Inhibition (%) COX-1 (1 μM)
T2 construct: host or cells: U-937 human lymphoma cells
T2 sequence (P23219 24-599): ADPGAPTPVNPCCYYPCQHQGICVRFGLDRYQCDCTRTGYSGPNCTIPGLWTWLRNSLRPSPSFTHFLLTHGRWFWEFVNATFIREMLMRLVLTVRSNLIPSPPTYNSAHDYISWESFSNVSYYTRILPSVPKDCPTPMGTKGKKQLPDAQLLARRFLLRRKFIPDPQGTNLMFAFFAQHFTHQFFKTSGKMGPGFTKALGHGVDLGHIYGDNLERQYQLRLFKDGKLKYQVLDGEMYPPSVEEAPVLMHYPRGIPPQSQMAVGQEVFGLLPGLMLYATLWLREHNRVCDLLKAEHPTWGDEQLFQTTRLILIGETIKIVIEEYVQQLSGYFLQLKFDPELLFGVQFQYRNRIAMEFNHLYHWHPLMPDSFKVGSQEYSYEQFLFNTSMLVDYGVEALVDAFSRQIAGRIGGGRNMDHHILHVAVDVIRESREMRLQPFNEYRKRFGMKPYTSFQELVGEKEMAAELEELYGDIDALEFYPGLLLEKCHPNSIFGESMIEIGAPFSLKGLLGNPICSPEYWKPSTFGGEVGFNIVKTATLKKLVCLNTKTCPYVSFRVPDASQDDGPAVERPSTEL
Method: The collected cells were diluted with HBSS (×1, Hank's balanced salt solution) to a concentration of 1×10^6 cells/ml. 1 ml of the dilute cell solution was placed into each well of 12-well plates. 5 μl of 1 μM solution of a test compound in DMSO and 5 μl of DMSO as a control were added to the wells. The wells were incubated in CO2 incubator at 37° C. for 15 minutes. Separately, 10 mM stock solution of arachidonic acid in ethanol was diluted ten times in ethanol to prepare 1 mM solution of arachidonic acid. Arachidonic acid acts as a substrate. 10 μl of the 1 mM solution of arachidonic acid was added to each well and incubated at CO2 incubator at 37° C. for 30 minutes. The cell solution of each well was placed in a centrifuge test tube and centrifuged at 10,000 rpm at 4° C. for 5 minutes. The concentration of PGE2 in the collected cells and the supernatant was quantified by means of a monoclonal kit (Cayman Chemicals). The percentages of PGE2 inhibition in a group of the test compound-treated cells in relation to a group of the DMSO-treated cells were calculated. Based on the calculated values, the COX-1 inhibitory activities were evaluated.
as §1, §2

COX-2 inhibitory activity compared with the reference (COX-2)	inhibition at 0.01 µM (COX-2)	inhibition at 1 µM (COX-1)	Structure (SMILES)	inhibition (%) ratio of COX-2 to COX-1 compared with the reference Valdecoxib (COX-2)
significantly higher than the reference	16%	26%	CS(=O)(=O)c1ccc(C2SCC(=O)N2c2ccccc2)cc1 (stereo not drawn) [Example 4, 2-(4-methanesulfonylphenyl)-3-phenylthiazolidine-4-one]	significantly higher than that in the reference
	6.54%	10.1%	CS(=O)(=O)c1ccc(C2SCC(=O)N2c2ccc(C#N)cc2)cc1 (stereo not drawn) [Example 5, 3-(4-cyanophenyl)-2-(4-methanesulfonylphenyl)thiazolidine-4-one]	significantly higher than that in the reference
significantly higher than the reference	12.1%	38%	CS(=O)(=O)c1ccc(C2SCC(=O)N2c2cc(F)cc(F)c2)cc1 (stereo not drawn) [Example 6, 3-(3,5-difluorophenyl)-2-(4-methanesulfonylphenyl)thiazolidine-4-one]	significantly higher than that in the reference
significantly higher than the reference	16%	29.2%	Cc1ccc(N2C(=O)CSC2c2ccc(S(C)(=O)=O)cc2)cc1F (stereo not drawn) [Example 2, 3-(3-fluoro-4-methylphenyl)-2-(4-methanesulfonylphenyl)thiazolidine-4-one]	significantly higher than that in the reference
